Data from US12157730B2, “Heteroaryl derivative, method for producing same, and pharmaceutical composition comprising same as effective component” (VORONOI INC., priority 2019, dated 2024).

Target: T1, Ba/F3 cell EGFR Exon20 ins NPH (Homo sapiens, UniProt P00533, INS773NPH)
T1 construct: expressed in transfected cells; host or cells: Ba/F3
Assay: Ba/F3 cell proliferation suppression, EGFR Exon20 ins NPH
Type: cell-based
Settings: GI50 class; Ba/F3 cell line with NPH inserted at Exon20 of EGFR; 72 hours
In short: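 72 h compound exposure, 0.3 nM–50 um (12 points, 3:1 dilution in DMSO); viability by CellTiter-Glo luminescence. Ba/F3 medium: RPMI-1640, 10% FBS, 5 ng/ml IL-3, 1 ug/ml puromycin for transduced cells. GI50 vs control, n=3.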

| SMILES | Ba/F3 (NPH) Activity |
| --- | --- |
| C=CC(=O)Nc1cc(Nc2cc(N3OCC[C@@H]3Cc3cccc(Cl)c3C)ncn2)c(OC)cc1N1CCN(C2CC2)CC1 [compound 1026, N-(5-((6-((S)-3-(3-chloro-2-methylbenzyl)isoxazolidine-2-yl)pyrimidine-4-yl)amino)-2-(4-cyclopropylpiperazine-1-yl)-4-methoxyphenyl) acrylamide] | B (50 nM ≤ GI50 < 500 nM) |
| C=CC(=O)Nc1cc(Nc2cc(N3OCC[C@@H]3c3cccc(Cl)c3F)ncn2)c(OC)cc1N1CCC(N2CCN(C3COC3)CC2)CC1 [Example 86, N-(5-((6-((R)-3-(3-chloro-2-fluorophenyl)isoxazolidine-2-yl)pyrimidine-4-yl)amino)-4-methoxy-2-(4-(4-(oxetane-3-yl)piperazine-1-yl)piperidine-1-yl)phenyl)acrylamide] | A (GI50 < 50 nM) |
| C=CC(=O)Nc1cc(Nc2cc(N3OCC[C@@H]3c3ccc(F)c(F)c3F)ncn2)c(OC)cc1N1CCC(N2C[C@H]3C[C@@H]2CO3)CC1 [compound 575, N-(2-(4-((1R,4R)-2-oxa-5-azabicyclo [2.2.1]heptane-5-yl)piperidine-1-yl)-4-methoxy-5-((6-((R)-3-(2,3,4-trifluorophenyl)isoxazolidine-2-yl)pyrimidine-4-yl)amino)phenyl)acrylamide] | A (GI50 < 50 nM) |
| C=CC(=O)Nc1cc(Nc2cc(N3OCC[C@@H]3c3ccccc3)ncn2)c(OC)cc1N1CCN(C2CCCC2)CC1 [Example 279, N-(2-(4-cyclopentylpiperazine-1-yl)-4-methoxy-5-((6-((R)-3-phenylisoxazolidine-2-yl)pyrimidine-4-yl)amino)phenyl) acrylamide] | A (GI50 < 50 nM) |
| C=CC(=O)Nc1cc(Nc2cc(N3OCC[C@@H]3c3cccc(Cl)c3C)ncn2)c(OC)cc1N1CCN(C)CC1 [compound 584, N-(5-((6-((R)-3-(3-chloro-2-methylphenyl)isoxazolidine-2-yl)pyrimidine-4-yl)amino)-4-methoxy-2-(4-methylpiperazine-1-yl)phenyl)acrylamide] | A (GI50 < 50 nM) |
| C=CC(=O)Nc1cc(Nc2cc(N3OCC[C@@H]3c3cc(F)ccc3F)ncn2)c(OC)cc1N1CCC(N2CCN(C(C)C)CC2)CC1 [compound 303, N-(5-((6-((R)-3-(2,5-difluorophenyl)isoxazolidine-2-yl)pyrimidine-4-yl)amino)-2-(4-(4-isopropylpiperazine-1-yl)piperidine-1-yl)-4-methoxyphenyl) acrylamide] | A (GI50 < 50 nM) |
| C=CC(=O)Nc1cc(Nc2cc(N3OCC[C@@H]3c3ccc(Cl)cc3)ncn2)c(OC)cc1N1CCC(N(C)C)CC1 [compound 805, N-(5-((6-((R)-3-(4-chlorophenyl)isoxazolidine-2-yl)pyrimidine-4-yl)amino)-2-(4-(dimethylamino)piperidine-1-yl)-4-methoxyphenyl) acrylamide] | A (GI50 < 50 nM) |
| C=CC(=O)Nc1cc(Nc2cc(N3OCC[C@@H]3c3ccc(F)cc3F)ncn2)c(OC)cc1N1CCC(N2C[C@H]3C[C@@H]2CN3CC)CC1 [compound 425, N-(5-((6-((R)-3-(2,4-difluorophenyl)isoxazolidine-2-yl)pyrimidine-4-yl)amino)-2-(4-((1R,4R)-5-ethyl-2,5-diazabicyclo [2.2.1]heptane-2-yl)piperidine-1-yl)-4-methoxyphenyl) acrylamide] | A (GI50 < 50 nM) |
| C=CC(=O)Nc1cc(Nc2cc(N3OCC[C@@H]3Cc3cccc(Cl)c3Cl)ncn2)c(OC)cc1N1CCC(N2CCO[C@@H](C)C2)CC1 [compound 1013, N-(5-((6-((S)-3-(2,3-dichlorobenzyl)isoxazolidine-2-yl)pyrimidine-4-yl)amino)-4-methoxy-2-(4-((S)-2-methylmorpholino)piperidine-1-yl)phenyl) acrylamide] | A (GI50 < 50 nM) |
| C=CC(=O)Nc1cc(Nc2cc(N3OCC[C@@H]3c3cccc(Cl)c3Cl)ncn2)c(OC)cc1N1C[C@@H]2C[C@H]1CO2 [compound 522, N-(2-((1S,4S)-2-oxa-5-azabicyclo[2.2.1]heptane-5-yl)-5-((6-((R)-3-(2,3-dichlorophenyl)isoxazolidine-2-yl)pyrimidine-4-yl)amino)-4-methoxyphenyl) acrylamide] | B (50 nM ≤ GI50 < 500 nM) |
| C=CC(=O)Nc1cc(Nc2cc(N3OCC[C@@H]3c3cccc(Cl)c3)ncn2)c(OC)cc1N1CCC(N2CCN(C(C)C)CC2)CC1 [compound 461, N-(5-((6-((R)-3-(3-chlorophenyl)isoxazolidine-2-yl)pyrimidine-4-yl)amino)-2-(4-(4-isopropylpiperazine-1-yl)piperidine-1-yl)-4-methoxyphenyl) acrylamide] | A (GI50 < 50 nM) |
| C=CC(=O)Nc1cc(Nc2cc(N3OCC[C@@H]3c3cccc(F)c3Cl)ncn2)c(OC)cc1N1CCC(N2C[C@H]3CCN(C)[C@H]3C2)CC1 [compound 447, N-(5-((6-((R)-3-(2-chloro-3-fluorophenyl)isoxazolidine-2-yl)pyrimidine-4-yl)amino)-4-methoxy-2-(4-((3aR,6aR)-1-methylhexahydropyrrolo [3,4-b]pyrrole-5(1H)-yl)piperidine-1-yl)phenyl)acrylamide] | A (GI50 < 50 nM) |
| C=CC(=O)Nc1cc(Nc2cc(N3OCC[C@@H]3c3ccc(Cl)c(F)c3)ncn2)c(OC)cc1N1CCC(N2CCN(C(C)=O)CC2)CC1 [compound 796, N-(2-(4-(4-acetylpiperazine-1-yl)piperidine-1-yl)-5-((6-((R)-3-(4-chloro-3-fluorophenyl)isoxazolidine-2-yl)pyrimidine-4-yl)amino)-4-methoxyphenyl) acrylamide] | A (GI50 < 50 nM) |
| C=CC(=O)Nc1cc(Nc2cc(N3OCC[C@@H]3c3ccc(F)c(F)c3)ncn2)c(OC)cc1N1CCC(N2CCN(C3CCC3)CC2)CC1 [Example 186, N-(2-(4-(4-cyclobutylpiperazine-1-yl)piperidine-1-yl)-5-((6-((R)-3-(3,4-difluorophenyl)isoxazolidine-2-yl)pyrimidine-4-yl)amino)-4-methoxyphenyl) acrylamide] | A (GI50 < 50 nM) |
| C=CC(=O)Nc1cc(Nc2cc(N3OCC[C@@H]3c3cccc(C#N)c3)ncn2)c(OC)cc1N1CC[C@@H](N(C)C)C1 [compound 395, N-(5-((6-((R)-3-(3-cyanophenyl)isoxazolidine-2-yl)pyrimidine-4-yl)amino)-2-((R)-3-(dimethylamino)pyrolidine-1-yl)-4-methoxyphenyl) acrylamide] | B (50 nM ≤ GI50 < 500 nM) |
| C=CC(=O)Nc1cc(Nc2cc(N3OCC[C@@H]3c3cccc(Cl)c3F)ncn2)c(OC)cc1N1CCC(N2CCN(C3CC3)C[C@@H]2C)CC1 [Example 150, N-(5-((6-((R)-3-(3-chloro-2-fluorophenyl)isoxazolidine-2-yl)pyrimidine-4-yl)amino)-2-(4-((S)-4-cyclopropyl-2-methylpiperazine-1-yl)piperidine-1-yl)-4-methoxyphenyl) acrylamide] | A (GI50 < 50 nM) |
| C=CC(=O)Nc1cc(Nc2cc(N3OCC[C@@H]3c3ccc(C)nc3)ncn2)c(OC)cc1N1CCC(N2CCN(CC)CC2)CC1 [Example 41, N-(2-(4-(4-ethylpiperazine-1-yl)piperidine-1-yl)-4-methoxy-5-((6((R)-3-(6-methylpyridine-3-yl)isoxazolidine-2-yl)pyrimidine-4-yl)amino)phenyl) acrylamide] | B (50 nM ≤ GI50 < 500 nM) |
| C=CC(=O)Nc1cc(Nc2cc(N3OCC[C@@H]3c3cccc(Cl)c3F)ncn2)c(OC)cc1N1CCC(N2CCN(C3CC3)[C@H](C)C2)CC1 [Example 180, N-(5-((6-((R)-3-(3-chloro-2-fluorophenyl)isoxazolidine-2-yl)pyrimidine-4-yl)amino)-2-(4-((R)-4-cyclopropyl-3-methylpiperazine-1-yl)piperidine-1-yl)-4-methoxyphenyl) acrylamide] | A (GI50 < 50 nM) |
| C=CC(=O)Nc1cc(Nc2cc(N3OCC[C@@H]3c3cccc(C)c3F)ncn2)c(OC)cc1N1CCC(N2CCN(C(C)C)CC2)CC1 [compound 911, N-(5-((6-((R)-3-(2-fluoro-3-methylphenyl)isoxazolidine-2-yl)pyrimidine-4-yl)amino)-2-(4-(4-isopropylpiperazine-1-yl)piperidine-1-yl)-4-methoxyphenyl) acrylamide] | A (GI50 < 50 nM) |
| C=CC(=O)Nc1cc(Nc2cc(N3OCC[C@@H]3Cc3ccccc3)ncn2)c(OC)cc1N(C)CCOC [compound 953, N-(5-((6-((S)-3-benzylisoxazolidine-2-yl)pyrimidine-4-yl)amino)-4-methoxy-2-((2-methoxyethyl) (methyl)amino)phenyl) acrylamide] | B (50 nM ≤ GI50 < 500 nM) |
| COc1cc(N2CCC(N3CCN(C4CC4)CC3)CC2)c(NC(=O)/C=C/CN(C)C)cc1Nc1cc(N2OCC[C@@H]2c2cc(F)cc(F)c2)ncn1 [Example 117, N-(2-(4-(4-cyclopropylpiperazine-1-yl)piperidine-1-yl)-5-((6-((R)-3-(3,5-difluorophenyl)isoxazolidine-2-yl)pyrimidine-4-yl)amino)-4-methoxyphenyl)-(E)-4-(dimethylamino) but-2-enamide] | A (GI50 < 50 nM) |
| C=CC(=O)Nc1cc(Nc2cc(N3OCC[C@@H]3c3ccc(F)c(Cl)c3F)ncn2)c(OC)cc1N1C[C@H](C)O[C@@H](C)C1 [compound 658, N-(5-((6-((R)-3-(3-chloro-2,4-difluorophenyl)isoxazolidine-2-yl)pyrimidine-4-yl)amino)-2-((2S,6S)-2,6-dimethylmorpholino)-4-methoxyphenyl) acrylamide] | B (50 nM ≤ GI50 < 500 nM) |
| C=CC(=O)Nc1cc(Nc2cc(N3OCC[C@@H]3c3ccc(F)cc3F)ncn2)c(OC)cc1N1C[C@H]2C[C@@H]1CN2CC [compound 385, N-(5-((6-((R)-3-(2,4-difluorophenyl)isoxazolidine-2-yl)pyrimidine-4-yl)amino)-2-((1R,4R)-5-ethyl-2,5-diazabicyclo[2.2.1]heptane-2-yl)-4-methoxyphenyl) acrylamide] | A (GI50 < 50 nM) |
